Laboratory results published in US8188074B2 (priority 2001, dated 2012).
Like-named read-outs stand apart in the source and are kept apart here.

Tests used:
[1] = Octanol-buffer partition coefficient
Excerpt: The octanol buffer partition coefficient (p) determines the lipophilicity of the drug.

E. coli [2] = test: Photoinactivation of E. coli; type: cell-based; conditions: for log change in CFU/ml / percentage cell survival / log change CFU/ml: E. coli; for log change CFU/ml: laser light
Experimental: (§1) Cell inactivation was then measured.

C. albicans = test: Photoinactivation of C. albicans; type: cell-based, Candida albicans; conditions: 10 μM; laser light at 0.1 W
Experimental: as §1

S. aureus = conditions: 10 μM, laser light (665 nm) 0.1 W
Experimental: (§2) Stock solutions of the photosensitisers were made up to 5 mM in dimethylsulfoxide (DMSO). The 5 mM stock was further diluted in DMSO to a working concentration of 1 mM. All photosensitisers were stored in foil covered vials at room temperature until required.
(§3) The microorganisms were grown until in the mid-logarithmic phase and then harvested and resuspended.
(§4) The log or stationary phase cells were collected by centrifugation and washed twice in 0.1 M potassium phosphate buffer (pH 7.0). Following washing, the cells were resuspended in the same buffer to an absorbance of 0.87 at 650 nm.
(§5) 25 ml of the prepared cell suspension was incubated with 0.25 mls of a 1 mM stock solution of photosensitiser (giving a final concentration of 10 μM) in a 250 ml sterile foil covered conical flask. The suspension was incubated for 30 minutes in the dark in a 37° C. shaking incubator at 250 rpm.
(§6) After incubation with 10 μM phenothiazinium compound, 10 ml of the bacterial culture was aseptically transferred to a sterile cell. This consisted of a sealed vial with a sealed capillary tube inserted, into which the optical fibre could be placed. […]
(§7) 50 ml of the illuminated and non-illuminated samples of the suspension were removed and diluted in 0.1 M pH 7.0 potassium phosphate buffer. […] Cell inactivation was then measured.

E. coli [3] = test system: E. coli
P. aeruginosa = test: Photoinactivation of P. aeruginosa; conditions: 10 μM, laser light (665 nm) 0.1 W
Experimental: as §2, §3, §4, §5, §6, §7

[4] = patients after administration; cited from earlier work
[5] = test system: RIF-1 murine fibrosarcoma cells; test: Cellular uptake in RIF-1 cells; type: cell-based; conditions: 2 h incubation, solubilised in 2% SDS, fluorescence
[6] = octanol-buffer partition coefficient
[7] = 30 min with 10 μM, halogen lamp 60 minutes at 1.3 mW/cm^2

## CCCCN(CCCC)c1ccc2nc3ccc(N4CCOCC4)cc3[s+]c2c1.[I-] [Compound 24]
[1]; [6]
  Log P: +1.0

## 3,7-(tetra-n-butylamino)-phenothiazin-5-ium [Compound 2]
E. coli [2]; 10 μM, washed twice, laser light (665 nm) 0.1 W for 4 minutes
  log change in CFU/ml of washed versus unwashed E. coli cells, FIG. 10: little difference
E. coli [2]; [7]
  log change in CFU/ml: 5.1 log10
  percentage cell survival: 0.001%
E. coli [2]; 30 min with 10 μM, illuminated 15 minutes at 1.3 mW/cm^2
  log change in CFU/ml: 4.59 log10 units
E. coli [2]; 30 min with 50 μM, illuminated 15 minutes at 1.3 mW/cm^2
  log change in CFU/ml: 2.15 units
E. coli [2]; 14 minute illumination at 0.1 W
  log change CFU/ml: 5.69 log
E. coli [2]; 20 minute illumination at 0.1 W, number of CFU too small to be statistically reliable
  log change CFU/ml: ~8.5 units
E. coli [2]; nutrient medium, 10 μM, 60 minutes at 1.3 mW/cm^2
  antibacterial activity, E. coli resuspended in nutrient medium, FIG. 7: highest antibacterial activity
C. albicans
  killing of Candida albicans in the light, FIG. 16: readily destroyed
S. aureus; 1 minute
  bacteria inactivated: ~99%
S. aureus; 10 minutes
  cell kill: ~5 logs
E. coli [3]; 10 μM in growth media, dark, 37° C., 6 hours, turbidity at 550 nm
  growth of an E. coli culture in the dark compared to control, FIG. 11: greatest inhibition
E. coli [3]; 10 μM, dark
  growth of E. coli after addition of photosensitiser at 3 hours, in the dark, FIG. 12: continuing growth
E. coli [3]; 10 μM, light
  growth of E. coli after addition of photosensitiser at 3 hours, in the light, FIG. 12: complete elimination of growth
P. aeruginosa; 2 minutes
  cell kill: greater than 99%
P. aeruginosa; 10 minutes
  cell kill: ~4 logs

## Oc1cccc(-c2c3nc(c(-c4cccc(O)c4)c4ccc([nH]4)c(-c4cccc(O)c4)c4nc(c(-c5cccc(O)c5)c5ccc2[nH]5)CC4)C=C3)c1 [Foscan]
[4]
  period of sensitivity to light: approximately 15 days

## CCN(CC)c1ccc2nc3ccc(N(CC)CC)cc3[s+]c2c1.[Cl-] [Compound 6, ethylene blue, reference compound]
[1]; [6]
  Log P: +0.2
[5]
  Uptake at PDT LD50: 2.9 nmol/mg protein

## 3-(N,N-diethanolamino)-7-(N,N-dipentylamino)-phenothiazin-5-ium iodide [Compound 28]
[1]
  Log P: +1.1

## CCCCCCN(CCCCCC)c1ccc2nc3ccc(N(CCCCCC)CCCCCC)cc3[s+]c2c1.[Br-] [Compound 4]
[1]; [6]
  Log P: +1.3
[5]
  Uptake at PDT LD50: 1.6 nmol/mg protein
E. coli [2]; [7]
  log change in CFU/ml: 0.19 log10
  percentage cell survival: 65.3%
